Results from patent publication US9057727B2, “Screening methods using G-protein coupled receptors and related compositions” (The General Hospital Corporation, priority 2007, dated 2015).
Entries after “also recorded” stand apart in the source; their conditions may differ.

Experiments:
NaPi-IIc = NaPi-IIc immunostaining in renal PT cells of injected mice; type: in vivo; settings: interval 4 to 6 h
From the text: (§1) To impair PLC signaling, we replaced alanine at position 1 of M-PTH(1-28) with tryptophan, in accordance with findings of Bisello and colleagues (J Biol Chem 277:38524-30, 2002) showing that such bulky substitutions at this position selectively impair PLC signaling.

hPTHR [1] = biological target: T1, hPTHR (Homo sapiens, UniProt Q03431); experiment: Delayed cAMP response after ligand wash-out in HKRK-B7 cells; type: cell-based; parameters: expressed in transfected cells
T1 sequence (Q03431 27-593): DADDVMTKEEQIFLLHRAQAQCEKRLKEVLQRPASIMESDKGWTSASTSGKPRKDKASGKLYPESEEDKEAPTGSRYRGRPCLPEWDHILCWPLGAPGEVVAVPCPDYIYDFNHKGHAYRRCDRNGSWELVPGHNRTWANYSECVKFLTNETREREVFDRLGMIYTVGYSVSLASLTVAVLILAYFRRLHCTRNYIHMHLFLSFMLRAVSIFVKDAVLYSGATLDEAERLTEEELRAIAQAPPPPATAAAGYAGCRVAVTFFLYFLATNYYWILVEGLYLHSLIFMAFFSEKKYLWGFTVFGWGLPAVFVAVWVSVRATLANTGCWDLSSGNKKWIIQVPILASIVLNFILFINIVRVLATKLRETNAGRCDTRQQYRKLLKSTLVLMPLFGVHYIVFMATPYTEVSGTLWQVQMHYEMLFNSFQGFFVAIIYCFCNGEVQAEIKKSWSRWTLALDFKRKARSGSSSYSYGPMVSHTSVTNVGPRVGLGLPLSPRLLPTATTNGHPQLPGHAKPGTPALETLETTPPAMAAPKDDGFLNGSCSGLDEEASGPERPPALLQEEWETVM
Procedure: The cells were pre-treated for 10 minutes with either buffer alone (basal) or buffer containing ligand (100 nM); at t=0, the cells were washed, incubated in buffer for the times indicated (wash-out phase), treated with 3-isobutyl-1-methylxanthine (IBMX) for five minutes, and then assessed for intracellular cAMP. […] Data are means (±s.e.m.) of three experiments, each performed in duplicate. […] Analogs were similarly assessed in HKRK-B64 cells (90,000 hPTHRs/cell) at a single time-point, 60 minutes after ligand wash-out (FIG. 5B). For each peptide, the data are expressed as a percentile of the maximum cAMP responses (indicated in side panel) produced in cells treated concomitantly with that ligand and IBMX for 10 minutes and omitting the wash-out phase. […] Data are means (±s.e.m) of four experiments, each performed in triplicate.
Cells were thus treated with a ligand for ten minutes, washed to remove unbound ligand. At various times after washing, IBMX was applied for five minutes, and the resulting intracellular cAMP was measured. […]
Following treatment of cells with a ligand, the intracellular cAMP levels were measured by radioimmuno assay, as described (Shimizu et al., J. Biol. Chem. 276:49003-49012 (2001)). The capacities of ligands to produce a delayed cAMP response in cells after a brief exposure to the ligand was assessed as follows. […]

[2] = Bone turnover markers (PINP, osteocalcin, CTX) in mice, daily treatment; type: in vivo; settings: 5 nmol/kg i.v. daily, days 6 and 13
Procedure: FIGS. 30A-30F are graphs showing the effects of PTH analogs on plasma bone markers in mice. Mice (C57BL/6, males, 3 months) were intravenously injected daily with either vehicle, rPTH(1-34) (SEQ ID NO:130), M-PTH(1-34) (SEQ ID NO:12), or (EALK)-PTHrP(1-30) (SEQ ID NO:90) (5 nmol/kg; n=7 group) for 14 days. Markers of bone turnover (PINP, CTX and osteocalcin) were assessed by ELISA in blood at day 6 (FIGS. 30A, 30C, and 30E, respectively) and 13 (FIGS. 30B, 30D, and 30F, respectively).
A second set of experiments was performed in which mice received 5 nmol/kg intravenous daily treatment with rPTH(1-34), M-PTH(1-34), or EALK-PTHrP(1-30) for 14 days. Blood samples were taken at days 6 and 13, and markers of bone turnover (PINP, osteocalcin and CTX) were assessed by ELISA.

[3] = Bone structural parameters after two-week daily treatment in mice (Piximus, microCT); type: in vivo
Procedure: FIG. 31 is a set of images showing the effects of two-week daily treatment of R^0 and RG ligands on trabecular and cortical bone structure in mice. Mice (C57BL/6, males, 3 months) were treated (i.v.) with either vehicle, rPTH(1-34) (SEQ ID NO:130), M-PTH(1-34) (SEQ ID NO:12), or E^18,A^22,L^25,K^26 (EALK)PTHrP(1-30) (SEQ ID NO:90) (5 nmol/kg; n=7 group), daily for 14 days, and femurs were analyzed by μCT.
As described above, mice were treated intravenously) with either vehicle, rPTH(1-34), M-PTH(1-34), or EALK-PTHrP(1-30) daily for 14 days.

[4] = Plasma phosphate in mice (20 nmol/kg); type: in vivo
From the text: as §1

NaPi-IIa = NaPi-IIa staining in renal PT cells of injected mice; settings: mouse, in vivo
From the text: To help elucidate further the signaling mechanisms by which PTH ligands regulate renal phosphate transport, we developed a derivative of M-PTH(1-28) that is defective for PLC/PKC signaling, yet retains potent cAMP/PKA signaling activity. Such a peptide allows for study of the relative roles of the PKA and PKC signaling pathways in modulating the function and surface expression of the Pi transporters NaPi-IIa and NaPi-IIc in proximal tubule (PT) cells. The analog M-PTH(1-28) (M=Ala^1,Aib^3,Gln^10, Har^11,Trp^14,Arg^19), a potent agonist for cAMP and IP3 signaling pathways, induces, when injected into mice, prolonged hypophosphatemic and hypercalcemic effects.
as §1

hPTHR [5] = biological target: T1, hPTHR; experiment: Delayed cAMP response after ligand wash-out in HKRK-B64 cells; type: cell-based; parameters: expressed in transfected cells; settings: HKRK-B64, 60 minutes after wash-out; read-out: cAMP response after wash-out, % of maximum response
Procedure: The cells were pre-treated for 10 minutes with either buffer alone (basal) or buffer containing ligand (100 nM); at t=0, the cells were washed, incubated in buffer for the times indicated (wash-out phase), treated with 3-isobutyl-1-methylxanthine (IBMX) for five minutes, and then assessed for intracellular cAMP. […] The cAMP level in cells treated with IBMX in the absence of ligand was 2.0±0.3 pmole/well. Data are means (±s.e.m.) of three experiments, each performed in duplicate. […] Analogs were similarly assessed in HKRK-B64 cells (90,000 hPTHRs/cell) at a single time-point, 60 minutes after ligand wash-out (FIG. 5B). For each peptide, the data are expressed as a percentile of the maximum cAMP responses (indicated in side panel) produced in cells treated concomitantly with that ligand and IBMX for 10 minutes and omitting the wash-out phase. […] Data are means (±s.e.m) of four experiments, each performed in triplicate.
The capacity of the ligands to produce sustained (or delayed) cAMP signaling responses was further examined in HKRK-B64 cells, which express the hPTHR at a more physiological level than do HKRK-B7 cells (90,000 per cell vs. 950,000/cell).
The capacities of ligands to produce a delayed cAMP response in cells after a brief exposure to the ligand was assessed as follows. The cells in 24-well plates were rinsed in binding buffer (50 mM Tris-HCl, pH 7.7, 100 mM NaCl, 5 mM KCl, 2 mM CaCl2, 5% heat-inactivated horse serum, 0.5% heat-inactivated fetal bovine serum) and then incubated in binding buffer with or without a peptide ligand (1×10^−7 or 3×10^−7 M) for 10 minutes at room temperature; the buffer was then removed, the cells were washed three times with binding buffer, incubated further in binding buffer for varying times (1 to 120 minutes); the buffer was then replaced by binding buffer containing IBMX (2 mM), and after an additional five minute incubation, the intracellular cAMP was quantified.

[6] = Serum and urinary calcium and phosphate in TPTX rats; type: in vivo; settings: single i.v. 1.25 nmol/kg
Procedure: Five-week-old male Crl:CD(SD) rats were obtained from Charles River Laboratories Japan, Inc. (Kanagawa, Japan) and acclimated for 1 week under standard laboratory conditions at 20-26° C. and 35-75% humidity. The rats received free access to tap water and standard rodent chow (CE-2) containing 1.1% calcium, 1.0% phosphate and 250 IU/100 g of vitamin D3 (Clea Japan, Inc., Shizuoka, Japan).
Thyroparathyroidectomy (TPTX) was performed on six-week-old rats. TPTX rats were selected for use based on serum ionized calcium (iCa) levels (<1.0 mM) in samples taken from tail vein bleeding at 24 hours or […] after the operation using the electrode method. The TPTX rats were divided into six groups of five animals based on iCa levels at 48 hours after the operation. TPTX-vehicle group intravenously received the vehicle alone (10 mM acetic acid solution) at a dose of 1 ml/kg body weight administered to the tail vein.
Blood was obtained from the tail vein for detecting iCa at 1, 2, 4, 6, and 24 hours after each injection. Ionized calcium levels were determined by the electrode method using an autoanalyzer (M-634, Chiba Corning Diagnostics Co. Ltd., Tokyo, Japan).
We also studied the effects of the M-PTH(1-14)/PTHrP(15-36) hybrid peptide (SP-PTH) on serum and urinary calcium and phosphate.

[7] = test system: opossum kidney (OK) cell line; experiment: Phosphate uptake inhibition in opossum kidney cells; type: cell-based; settings: 10 minute exposure, 1×10^−7 M
Procedure: Data are means (±s.e.m.) of two experiments, each performed in duplicate.
Inhibition of phosphate uptake was assessed using the opossum kidney (OK) cell line, which are derived from the renal proximal tubule.
Cells were treated for 10 minutes at 37° C. with media (vehicle) or media containing a peptide ligand (1×10^−7 M); then (t=0), the cells were then rinsed three times with media and incubated in alone at 37° C. for varying times. At each time point, ^32PO4 was then added to the media, and after five minutes of incubation, the cells were washed, lysed, and the lysate was counted for ^32P beta radioactivity by liquid scintillation counting.

[8] = biological target: T2, human PTHR, G protein-uncoupled conformation (R^0) (Homo sapiens, UniProt Q03431); experiment: Competition binding to R0 conformation of hPTHR (COS-7 membranes, GTPγS, 125I-PTH(1-34) tracer); settings: Table 5; fold weaker affinity for R0 than RG
T2 construct: expressed in transfected cells; host or cells: COS-7, transient (Fugene-6)
T2 sequence (Q03431 27-593): T1 sequence (Q03431 27-593)
Outline: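 Membranes from hPTHR-transfected COS-7 cells (20-100 μg/mL protein) incubated 90 min with radioligand (~150,000 cpm/ml) and unlabeled ligands, then filtered. Specific binding expressed as % of binding without competitor.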

[9] = Piximus, mice, 5 nmol/kg i.v. daily 14 days

CC[C@H](C)[C@H](NC(=O)[C@H](CCC(=O)O)NC(=O)[C@H](CO)NC(=O)[C@@H](NC(=O)[C@H](C)N)C(C)C)C(=O)N[C@@H](CCC(N)=O)C(=O)N[C@@H](CC(C)C)C(=O)N[C@@H](CCSC)C(=O)N[C@@H](Cc1c[nH]cn1)C(=O)N[C@@H](CC(N)=O)C(=O)N[C@@H](CC(C)C)C(=O)NCC(=O)N[C@@H](CCCCN)C(=O)N[C@@H](Cc1c[nH]cn1)C(=O)N[C@@H](CC(C)C)C(=O)N[C@@H](C)C(=O)N[C@@H](CO)C(=O)N[C@H](C(=O)N[C@@H](CCC(=O)O)C(=O)N[C@@H](CCCNC(=N)N)C(=O)N[C@@H](CCSC)C(=O)N[C@@H](CCC(N)=O)C(=O)N[C@@H](Cc1c[nH]c2ccccc12)C(=O)N[C@@H](CC(C)C)C(=O)N[C@@H](CCCNC(=N)N)C(=O)N[C@@H](CCCCN)C(=O)N[C@@H](CCCCN)C(=O)N[C@@H](CC(C)C)C(=O)N[C@@H](CCC(N)=O)C(=O)N[C@@H](CC(=O)O)C(=O)N[C@H](C(=O)N[C@@H](Cc1c[nH]cn1)C(=O)N[C@@H](CC(N)=O)C(=O)N[C@@H](Cc1ccccc1)C(N)=O)C(C)C)C(C)C [PTH(1-34), reference compound]
NaPi-IIc immunostaining, in words (NaPi-IIc): unchanged
time course of cAMP responses after wash-out compared with other ligands, in words (hPTHR [1]): not different from those induced by PTHrP(1-36); also recorded: nearly identical to those produced by Ile^5-PTHrP(1-36)
effect on bone turnover markers, in words [2]: only minor effects on bone markers
Lumbar Spine BMD [3, 9]: 0.0464 ± 0.0002 g/cm^2
Total Femur BMD [3, 9]: 0.0615 ± 0.0003 g/cm^2
Conn-Dens. ([3]; microCT distal femur): 116 ± 8 1/mm^3
Cort Th. ([3]; microCT distal femur): 229 ± 11 μm
Tb · N ([3]; microCT distal femur): 4.02 ± 0.14 1/mm
Tb · Th ([3]; microCT distal femur): 57.5 ± 1.4 μm
TbSp ([3]; microCT distal femur): 246 ± 10 μm
TrabecularBV/TV ([3]; microCT distal femur): 17.4 ± 1.2%
BA ([3]; microCT mid femur): 0.839 ± 0.032 mm^2
BA/TA ([3]; microCT mid femur): 38.7 ± 0.7%
Cort Th. ([3]; microCT mid femur): 172 ± 5 μm
MA ([3]; microCT mid femur): 1.33 ± 0.02 mm^2
TA ([3]; microCT mid femur): 2.17 ± 0.05 mm^2
time of maximal suppression of plasma phosphate [4]: 2 h
time of recovery of plasma phosphate to vehicle control levels [4]: 4 h
apical and cytoplasmic NaPi-IIa staining, in words (NaPi-IIa): returned to vehicle control levels at 6 h
Emax (hPTHR [5]): 47%
serum calcium (sCa) and serum phosphorus (sPi), in words [6]: transiently increased serum calcium (sCa) and decreased serum phosphorus (sPi) levels at 1 hr, but not to the normal range
urinary calcium 0-6 hours, in words [6]: did not change
urinary phosphate 0-6 hours, in words [6]: did not change
duration of phosphate uptake inhibition, in words [7]: much shorter duration of phosphate uptake inhibition
R0:RG [8]: five
